# Data published in patent US20260226493A1, “HERBICIDE RESISTANT PLANTS” (SYNGENTA CROP PROTECTION AG, priority 2023, published 2026).
# How the values were obtained:
# Experiment in all cases: BIO3-BIO1 mutant enzyme activity in the presence of herbicide, percentage inhibition (fluorometric DAPA assay)
# Assay type in all cases: biochemical
# Settings in all cases: read-out: percentage inhibition
# [1] = target: T1, Arabidopsis thaliana BIO3-BIO1 (BioDA) mutants (Arabidopsis thaliana, UniProt B0F481, P421A)
# T1 construct: with the predicted N-terminal mitochondrial transit peptide removed; 6xHis-tag (N); thrombin cleavage site (N); made in house; host or cells: E. coli BL21 (DE3) bioA
# In short: (§1)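 Percentage inhibition compares activity at one of three herbicide concentrations against DMSO, from o-phthalaldehyde-derivatised DAPA fluorescence (ex 410, em 470 nm). Purified N-His BIO3-BIO1 variants (50 nM, E. coli-expressed) saw herbicide 10 min at 20 °C in pH 8.6 EPPS buffer, then 20 μM KAPA plus 100 μM spermidine for 75 min at 20 °C.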
# [2] = target: T2, Arabidopsis thaliana BIO3-BIO1 (BioDA) mutants (Arabidopsis thaliana, UniProt B0F481, T512W)
# T2 construct: with the predicted N-terminal mitochondrial transit peptide removed; 6xHis-tag (N); thrombin cleavage site (N); made in house; host or cells: E. coli BL21 (DE3) bioA
# In short: as §1
# [3] = target: T3, Arabidopsis thaliana BIO3-BIO1 (BioDA) mutants (Arabidopsis thaliana, UniProt B0F481, W392C)
# T3 construct: with the predicted N-terminal mitochondrial transit peptide removed; 6xHis-tag (N); thrombin cleavage site (N); made in house; host or cells: E. coli BL21 (DE3) bioA
# In short: as §1
# [4] = target: T4, Arabidopsis thaliana BIO3-BIO1 (BioDA) mutants (Arabidopsis thaliana, UniProt B0F481, P508L)
# T4 construct: with the predicted N-terminal mitochondrial transit peptide removed; 6xHis-tag (N); thrombin cleavage site (N); made in house; host or cells: E. coli BL21 (DE3) bioA
# In short: as §1
# [5] = target: T5, Arabidopsis thaliana BIO3-BIO1 (BioDA) mutants (Arabidopsis thaliana, UniProt B0F481, P421E)
# T5 construct: with the predicted N-terminal mitochondrial transit peptide removed; 6xHis-tag (N); thrombin cleavage site (N); made in house; host or cells: E. coli BL21 (DE3) bioA
# In short: as §1
# [6] = target: T6, Arabidopsis thaliana BIO3-BIO1 (BioDA) mutants (Arabidopsis thaliana, UniProt B0F481, P347A)
# T6 construct: with the predicted N-terminal mitochondrial transit peptide removed; 6xHis-tag (N); thrombin cleavage site (N); made in house; host or cells: E. coli BL21 (DE3) bioA
# In short: as §1
# [7] = target: T7, Arabidopsis thaliana BIO3-BIO1 (BioDA) mutants (Arabidopsis thaliana, UniProt B0F481, S509C)
# T7 construct: with the predicted N-terminal mitochondrial transit peptide removed; 6xHis-tag (N); thrombin cleavage site (N); made in house; host or cells: E. coli BL21 (DE3) bioA
# In short: as §1
# [8] = target: T8, Arabidopsis thaliana BIO3-BIO1 (BioDA) mutants (Arabidopsis thaliana, UniProt B0F481, P510C)
# T8 construct: with the predicted N-terminal mitochondrial transit peptide removed; 6xHis-tag (N); thrombin cleavage site (N); made in house; host or cells: E. coli BL21 (DE3) bioA
# In short: as §1
# [9] = target: T9, Arabidopsis thaliana BIO3-BIO1 (BioDA) mutants (Arabidopsis thaliana, UniProt B0F481, F348E)
# T9 construct: with the predicted N-terminal mitochondrial transit peptide removed; 6xHis-tag (N); thrombin cleavage site (N); made in house; host or cells: E. coli BL21 (DE3) bioA
# In short: as §1
# [10] = target: T10, Arabidopsis thaliana BIO3-BIO1 (BioDA) mutants (Arabidopsis thaliana, UniProt B0F481, S509E)
# T10 construct: with the predicted N-terminal mitochondrial transit peptide removed; 6xHis-tag (N); thrombin cleavage site (N); made in house; host or cells: E. coli BL21 (DE3) bioA
# In short: as §1
# [11] = target: T11, Arabidopsis thaliana BIO3-BIO1 (BioDA) mutants (Arabidopsis thaliana, UniProt B0F481, S509N)
# T11 construct: with the predicted N-terminal mitochondrial transit peptide removed; 6xHis-tag (N); thrombin cleavage site (N); made in house; host or cells: E. coli BL21 (DE3) bioA
# In short: as §1
# [12] = target: T12, Arabidopsis thaliana BIO3-BIO1 (BioDA) mutants (Arabidopsis thaliana, UniProt B0F481, A609R)
# T12 construct: with the predicted N-terminal mitochondrial transit peptide removed; 6xHis-tag (N); thrombin cleavage site (N); made in house; host or cells: E. coli BL21 (DE3) bioA
# In short: as §1
# T2 sequence (B0F481 23-833 T512W): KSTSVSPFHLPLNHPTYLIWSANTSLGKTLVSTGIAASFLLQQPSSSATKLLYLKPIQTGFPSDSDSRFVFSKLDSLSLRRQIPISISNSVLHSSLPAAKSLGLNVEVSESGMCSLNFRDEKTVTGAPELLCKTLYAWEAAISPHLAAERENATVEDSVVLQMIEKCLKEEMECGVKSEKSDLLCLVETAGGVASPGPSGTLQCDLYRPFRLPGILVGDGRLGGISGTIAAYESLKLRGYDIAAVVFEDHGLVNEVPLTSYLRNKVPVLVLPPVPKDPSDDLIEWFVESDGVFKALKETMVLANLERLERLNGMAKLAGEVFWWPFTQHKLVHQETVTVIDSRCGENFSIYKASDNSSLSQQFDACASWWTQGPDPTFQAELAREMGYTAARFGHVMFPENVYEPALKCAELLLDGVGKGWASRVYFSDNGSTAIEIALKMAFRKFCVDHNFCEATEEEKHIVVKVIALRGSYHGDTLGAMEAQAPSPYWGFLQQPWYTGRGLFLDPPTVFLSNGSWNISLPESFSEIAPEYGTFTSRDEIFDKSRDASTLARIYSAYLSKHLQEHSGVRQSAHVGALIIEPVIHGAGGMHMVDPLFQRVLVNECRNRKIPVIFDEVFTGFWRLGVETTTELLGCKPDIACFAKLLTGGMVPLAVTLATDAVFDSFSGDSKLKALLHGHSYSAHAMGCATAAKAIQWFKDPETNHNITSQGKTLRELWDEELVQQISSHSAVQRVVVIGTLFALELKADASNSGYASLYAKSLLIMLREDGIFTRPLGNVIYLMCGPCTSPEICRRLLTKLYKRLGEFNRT
# T8 sequence (B0F481 23-833 P510C): as the sequence (B0F481 23-833 T512W) above, with P488C, W490T counted along it
# T5 sequence (B0F481 23-833 P421E): as the sequence (B0F481 23-833 T512W) above, with P399E, W490T counted along it
# T9 sequence (B0F481 23-833 F348E): as the sequence (B0F481 23-833 T512W) above, with F326E, W490T counted along it
# T12 sequence (B0F481 23-833 A609R): as the sequence (B0F481 23-833 T512W) above, with W490T, A587R counted along it
# T3 sequence (B0F481 23-833 W392C): as the sequence (B0F481 23-833 T512W) above, with W370C, W490T counted along it
# T1 sequence (B0F481 23-833 P421A): as the sequence (B0F481 23-833 T512W) above, with P399A, W490T counted along it
# T11 sequence (B0F481 23-833 S509N): as the sequence (B0F481 23-833 T512W) above, with S487N, W490T counted along it
# T7 sequence (B0F481 23-833 S509C): as the sequence (B0F481 23-833 T512W) above, with S487C, W490T counted along it
# T6 sequence (B0F481 23-833 P347A): as the sequence (B0F481 23-833 T512W) above, with P325A, W490T counted along it
# T4 sequence (B0F481 23-833 P508L): as the sequence (B0F481 23-833 T512W) above, with P486L, W490T counted along it
# T10 sequence (B0F481 23-833 S509E): as the sequence (B0F481 23-833 T512W) above, with S487E, W490T counted along it
structure (smiles),measurement,setting,value
"CCOC(=O)c1nn(-c2ccc3c(c2)OC(F)(F)C(F)(F)O3)c2cccc(C(C)=O)c2c1=O [Compound A, ethyl 5-acetyl-4-oxo-1-(2,2,3,3-tetrafluoro-1,4-benzodioxin-6-yl)cinnoline-3-carboxylate]",inhibition at 1 µM,[1],0%
same,inhibition at 1 µM,[2],0%
same,inhibition at 1 µM,[3],42%
same,inhibition at 1 µM,[4],34%
same,inhibition at 1 µM,[5],0%
same,inhibition at 1 µM,[6],20%
same,inhibition at 1 µM,[7],0%
same,inhibition at 1 µM,[8],20%
same,inhibition at 1 µM,[9],0%
same,inhibition at 1 µM,[10],6%
same,inhibition at 1 µM,[11],43%
same,inhibition at 1 µM,[12],54%
"CCn1c(C)c(-c2ccc(F)cc2F)c(=O)c(C(=O)O)c1-c1ccc(Cl)c(Cl)c1 [Compound C, 2-(3,4-dichlorophenyl)-5-(2,4-difluorophenyl)-1-ethyl-6-methyl-4-oxo-pyridine-3-carboxylic acid]",inhibition at 0.2 µM,[1],16%
same,inhibition at 1 µM,[1],16%
same,inhibition at 5 µM,[1],35%
same,inhibition at 0.2 µM,[2],50%
same,inhibition at 1 µM,[2],83%
same,inhibition at 5 µM,[2],95%
same,inhibition at 0.2 µM,[3],20%
same,inhibition at 1 µM,[3],55%
same,inhibition at 5 µM,[3],87%
same,inhibition at 0.2 µM,[4],37%
same,inhibition at 1 µM,[4],80%
same,inhibition at 5 µM,[4],92%
same,inhibition at 0.2 µM,[5],37%
same,inhibition at 1 µM,[5],31%
same,inhibition at 5 µM,[5],0%
same,inhibition at 0.2 µM,[6],3%
same,inhibition at 1 µM,[6],27%
same,inhibition at 5 µM,[6],51%
same,inhibition at 0.2 µM,[7],30%
same,inhibition at 1 µM,[7],65%
same,inhibition at 5 µM,[7],88%
same,inhibition at 0.2 µM,[8],13%
same,inhibition at 1 µM,[8],53%
same,inhibition at 5 µM,[8],78%
same,inhibition at 0.2 µM,[9],19%
same,inhibition at 1 µM,[9],57%
same,inhibition at 5 µM,[9],86%
same,inhibition at 0.2 µM,[10],57%
same,inhibition at 1 µM,[10],87%
same,inhibition at 5 µM,[10],97%
same,inhibition at 0.2 µM,[11],16%
same,inhibition at 1 µM,[11],50%
same,inhibition at 5 µM,[11],86%
same,inhibition at 0.2 µM,[12],63%
same,inhibition at 1 µM,[12],68%
same,inhibition at 5 µM,[12],71%
"CCn1c(Cn2ccc(C(F)(F)F)n2)cc(=O)c(C(=O)O)c1-c1ccc(Cl)c(Cl)c1 [Compound L, 2-(3,4-dichlorophenyl)-1-ethyl-4-oxo-6-[[3-(trifluoromethyl)pyrazol-1-yl]methyl]pyridine-3-carboxylic acid]",inhibition at 0.01 µM,[1],15%
same,inhibition at 0.075 µM,[1],16%
same,inhibition at 0.5 µM,[1],21%
same,inhibition at 0.01 µM,[4],16%
same,inhibition at 0.075 µM,[4],48%
same,inhibition at 0.5 µM,[4],80%
same,inhibition at 0.01 µM,[5],0%
same,inhibition at 0.075 µM,[5],0%
same,inhibition at 0.5 µM,[5],41%
same,inhibition at 0.01 µM,[6],8%
same,inhibition at 0.075 µM,[6],23%
same,inhibition at 0.5 µM,[6],47%
same,inhibition at 0.01 µM,[8],0%
same,inhibition at 0.075 µM,[8],38%
same,inhibition at 0.5 µM,[8],77%
same,inhibition at 0.01 µM,[9],0%
same,inhibition at 0.075 µM,[9],0%
same,inhibition at 0.5 µM,[9],32%
same,inhibition at 0.01 µM,[12],0%
same,inhibition at 0.075 µM,[12],51%
same,inhibition at 0.5 µM,[12],65%
"CCn1c(-c2ccc(Cl)c(Cl)c2)c(C(=O)O)c(=O)c2cc(F)ccc21 [Compound M, 2-(3,4-dichlorophenyl)-1-ethyl-6-fluoro-4-oxo-quinoline-3-carboxylic acid]",inhibition at 0.2 µM,[1],15%
same,inhibition at 1 µM,[1],11%
same,inhibition at 5 µM,[1],17%
same,inhibition at 0.2 µM,[2],33%
same,inhibition at 1 µM,[2],55%
same,inhibition at 5 µM,[2],83%
same,inhibition at 0.2 µM,[3],0%
same,inhibition at 1 µM,[3],17%
same,inhibition at 5 µM,[3],27%
same,inhibition at 0.2 µM,[4],18%
same,inhibition at 1 µM,[4],55%
same,inhibition at 5 µM,[4],82%
same,inhibition at 0.2 µM,[5],0%
same,inhibition at 1 µM,[5],47%
same,inhibition at 5 µM,[5],62%
same,inhibition at 0.2 µM,[6],8%
same,inhibition at 1 µM,[6],26%
same,inhibition at 5 µM,[6],52%
same,inhibition at 0.2 µM,[7],21%
same,inhibition at 1 µM,[7],53%
same,inhibition at 5 µM,[7],78%
same,inhibition at 0.2 µM,[8],9%
same,inhibition at 1 µM,[8],36%
same,inhibition at 5 µM,[8],69%
same,inhibition at 0.2 µM,[9],27%
same,inhibition at 1 µM,[9],25%
same,inhibition at 5 µM,[9],66%
same,inhibition at 0.2 µM,[10],40%
same,inhibition at 1 µM,[10],73%
same,inhibition at 5 µM,[10],93%
same,inhibition at 0.2 µM,[11],6%
same,inhibition at 1 µM,[11],39%
same,inhibition at 5 µM,[11],78%
same,inhibition at 0.2 µM,[12],52%
same,inhibition at 1 µM,[12],53%
same,inhibition at 5 µM,[12],88%
